Experimental data reported in patent US10017492B2 (KANGPU BIOPHARMACEUTICALS, LTD., priority 2014, dated 2018).

How the values were obtained:
TNF-α = TNF-α activity inhibiting assay (LPS-stimulated peripheral blood, ELISA); type: cell-based, human; details: Homo sapiens, compound 100 nM, diluted peripheral blood of healthy volunteers, LPS 10 ng/mL, 6 hours, read-out: Inhibitory Rate on TNF-α (%)
In short: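 Human whole blood (EDTA), diluted 5-fold in RPMI 1640, pre-incubated 60 min at 37 °C with compound at 100 nM final (0.2% DMSO), then stimulated 6 h with 10 ng/mL LPS. Supernatant TNF-α measured by ELISA (OD450); inhibition relative to 0.2% DMSO control.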

[1] = tested on: MM.1S cells (myeloma cells); assay: Cell proliferation assay (MTS), MM.1S myeloma cells; type: cell-based; details: Homo sapiens, MM1.S, 72 hours, read-out: IC50 values of MMIS Inhibition
In short: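 MM.1S myeloma cells were seeded at 1.8×10^3 per well in RPMI and rested 24 hours before 72 hours of compound exposure at 37° C., 5% CO2, with final DMSO at 0.5%. Viability was read by MTS at OD490 nm, using OD650 nm as reference. IC50 came from variable-slope curves, with the 0.5% DMSO control set as 0% inhibition.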

[2] = tested on: WSU-DLCL-2 cells (diffuse large B cell lymphoma cells); assay: CTG cell proliferation assay, WSU-DLCL-2 cells; type: cell-based; details: Homo sapiens, WSUDLCL2, WSU-DLCL-2 cells, 72-120 hours, CellTiter-Glo; read-out: IC50 Value of WSU-DLCL2 Inhibition
Protocol: (§1) CTG Cell Proliferation Assay
(§2) Rec-1 cells (Mantle cell lymphoma cells) (ATCC, catalog number CRL-3004), Namalwa.CSN/70 cells (Burkitt lymphoma cells) (DSMZ, catalog number ACC-70), and WSU-DLCL-2 cells (diffuse large B cell lymphoma cells) (DSMZ, catalog number ACC-575) were seeded at (5-15)×10^3 per well to a 96-well plate with transparent bottom and white wall (Corning, catalog number CLS3903) containing specific medium. The plate was placed in an incubator and incubated for 24 hours at 37° C. under 5% CO2. Compounds were prepared as 150 mM stock solutions with DMSO (Sigma, catalog number 276855), and were diluted with the medium to the desired concentration (the final concentration of DMSO was 0.2%) and then were added to each well, incubated in an incubator for 72-120 hours at 37° C. under 5% CO2. Then, 100 μl CellTiter-Glo® cell activity assay reagent (Promega, catalog number G7570) was added to each well. Mixing proceeded for 10 minutes on a shaker to induce cytolysis. The 96-well plate was placed at room temperature for 10 minutes to make the luminous signal stable. A white base film was pasted at the bottom of the culture plate. EnSpire was used to test the plate.

[3] = tested on: Rec-1 cells (Mantle cell lymphoma cells); assay: CTG cell proliferation assay, Rec-1 cells; type: cell-based; details: Homo sapiens, Rec1, 72-120 hours, CellTiter-Glo, read-out: IC50 Value of Rec-1 Inhibition
Protocol: as §1, §2

[4] = tested on: Namalwa.CSN/70 cells (Burkitt lymphoma cells); assay: CTG cell proliferation assay, Namalwa.CSN/70 cells; type: cell-based; details: 72-120 hours, CellTiter-Glo, read-out: IC50 Value of Namalwa.CSN/70 Inhibition
Protocol: as §1, §2

IC50 [1] [nM]	IC50 [2] [nM]	IC50 [3] [nM]	IC50 [4] [nM]	Compound	inhibition at 0.1 µM (TNF-α) [%]
≥ 300	> 300000	100 to 400	> 300000	[2H][C@@]1(N2Cc3c(N)cc(F)cc3C2=O)CCC(=O)NC1=O [Compound I-32]	> 50
≥ 300	> 300000	100 to 400	> 300000	Nc1cccc2c1CN(C1CCC(=O)NC1=O)C2=O (stereo not shown) [Lenalidomide, 3-(4-amino-1,3-dihydro-1-oxo-2H-isoindole-2-yl)-piperidine-2,6-dione, reference compound]	< 50
